{"source": "patent US20070116800A1", "about": "“Chewing Gum with High-Potency Sweetener” (The Coca-Cola Company, priority 2005, published 2007)", "key": {"[1]": {"assay": "Rate of dissolution in H2O at 25° C. of rebaudioside A polymorph and amorphous forms", "format": "physicochemical"}, "[2]": {"format": "physicochemical", "protocol": "A solution of rebaudioside A (>97% pure by HPLC ) was prepared in double distilled water (12.5 gm in 50 mL, 25% concentration) by stirring the mixture at 40° C. for 5 minutes. An amorphous form of_rebaudioside A was formed by immediately using the clear solution for spray drying with the Lab-Plant spray drier SD-04 instrument (Lab-Plant Ltd., West Yorkshire, U.K.). The solution was fed through the feed pump into the nozzle atomizer which atomized it into a spray of droplets with the help of a constant flow of nitrogen/air. […] This dry powder (11-12 g, H2O 6.74%) was discharged continuously from the drying chamber and was collected in a bottle."}}}
{"substance": "rebaudioside A [Form 1]", "values": [{"measurement": "Rate of dissolution in H2O at 25° C. (grade in words)", "setting": "[1]", "result": "Very low"}, {"measurement": "Rate of dissolution in H2O at 25° C.", "setting": "[1]; 60 minutes", "result": "(<0.2%/60 %/60 minutes"}]}
{"substance": "rebaudioside A [Form 2]", "values": [{"measurement": "Rate of dissolution in H2O at 25° C. (grade in words)", "setting": "[1]", "result": "Intermediate"}, {"measurement": "Rate of dissolution in H2O at 25° C.", "setting": "[1]; 5 minutes", "result": "(<30%/5 %/5 minutes"}]}
{"substance": "rebaudioside A [Form 3]", "values": [{"measurement": "Rate of dissolution in H2O at 25° C. (grade in words)", "setting": "[1]", "result": "High"}, {"measurement": "Rate of dissolution in H2O at 25° C.", "setting": "[1]; 5 minutes", "result": "(>30%/5 %/5 minutes"}]}
{"substance": "rebaudioside A [Form 4]", "values": [{"measurement": "Rate of dissolution in H2O at 25° C. (grade in words)", "setting": "[1]", "result": "High"}, {"measurement": "Rate of dissolution in H2O at 25° C.", "setting": "[1]; 5 minutes", "result": "(>35.0%/5 %/5 minutes"}, {"measurement": "solubility in water", "setting": "[2]", "result": "> 35.0", "unit": "%"}]}
